Source: PubChem BioAssay (NCI)
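Five compound concentrations were applied to cells in 96-well plates for 48 hours; endpoints were derived by simple linear interpolation of the resulting dose-response curve. GI50: concentration for 50% inhibition of growth. At the TGI there is no net growth.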

Tests used:
Assay in all cases: inhibition of tumour cell growth, NCI panel, 48 h
[1] = test system: 786-0 renal
[2] = test system: A498 renal
[3] = test system: A549 NSCLC
[4] = test system: ACHN renal
[5] = test system: BT-549 breast
[6] = test system: CAKI-1 renal
[7] = test system: CCRF-CEM leukemia
[8] = test system: COLO 205 colon
[9] = test system: DU-145 prostate
[10] = test system: EKVX NSCLC
[11] = test system: HCC-2998 colon
[12] = test system: HCT-116 colon
[13] = test system: HCT-15 colon
[14] = test system: HL-60(TB) leukemia
[15] = test system: HOP-62 NSCLC
[16] = test system: HOP-92 NSCLC
[17] = test system: HS 578T breast
[18] = test system: HT29 colon
[19] = test system: IGROV1 ovarian
[20] = test system: K-562 leukemia
[21] = test system: KM12 colon
[22] = test system: LOX IMVI melanoma
[23] = test system: M14 melanoma
[24] = test system: MALME-3M melanoma
[25] = test system: MCF7 breast
[26] = test system: MDA-MB-231 breast
[27] = test system: MDA-MB-435
[28] = test system: MDA-N
[29] = test system: MOLT-4 leukemia
[30] = test system: NCI-H226 lung
[31] = test system: NCI-H23 lung
[32] = test system: NCI-H460 lung
[33] = test system: NCI-H522 lung
[34] = test system: NCI/ADR-RES ovarian
[35] = test system: OVCAR-3 ovarian
[36] = test system: OVCAR-4 ovarian
[37] = test system: OVCAR-5 ovarian
[38] = test system: OVCAR-8 ovarian
[39] = test system: PC-3 prostate
[40] = test system: RPMI-8226 leukemia
[41] = test system: RXF 393 renal
[42] = test system: SF-268 CNS
[43] = test system: SF-295 CNS
[44] = test system: SF-539 CNS
[45] = test system: SK-MEL-2 melanoma
[46] = test system: SK-MEL-28 melanoma
[47] = test system: SK-MEL-5 melanoma
[48] = test system: SK-OV-3 ovarian
[49] = test system: SN12C renal
[50] = test system: SNB-19 CNS
[51] = test system: SNB-75 CNS
[52] = test system: SR leukemia
[53] = test system: SW-620 colon
[54] = test system: T-47D breast
[55] = test system: TK-10 renal
[56] = test system: U251 CNS
[57] = test system: UACC-257 melanoma
[58] = test system: UACC-62 melanoma
[59] = test system: UO-31 renal

N#C/C(=C/NC(=S)NCc1ccccc1)C(N)=O
TGI [1]: > 100 µM
TGI [2]: > 100 µM
TGI [3]: > 100 µM
TGI [4]: > 100 µM
GI50 [5]: > 100 µM
TGI [5]: > 100 µM
TGI [6]: > 100 µM
TGI [7]: > 100 µM
TGI [8]: > 100 µM
TGI [9]: > 100 µM
TGI [10]: > 100 µM
TGI [11]: > 100 µM
TGI [12]: > 100 µM
TGI [13]: > 100 µM
TGI [14]: > 100 µM
TGI [15]: > 100 µM
TGI [16]: > 100 µM
TGI [17]: > 100 µM
TGI [18]: > 100 µM
TGI [19]: > 100 µM
TGI [20]: > 100 µM
TGI [21]: > 100 µM
TGI [22]: > 100 µM
TGI [23]: > 100 µM
TGI [24]: > 100 µM
TGI [25]: > 100 µM
TGI [26]: > 100 µM
TGI [27]: > 100 µM
TGI [28]: > 100 µM
TGI [29]: > 100 µM
TGI [30]: > 100 µM
TGI [31]: > 100 µM
TGI [32]: > 100 µM
TGI [33]: > 100 µM
TGI [34]: > 100 µM
TGI [35]: > 86.1 µM
TGI [36]: > 100 µM
TGI [37]: > 100 µM
TGI [38]: > 100 µM
TGI [39]: > 100 µM
TGI [40]: > 100 µM
TGI [41]: > 100 µM
TGI [42]: > 100 µM
TGI [43]: > 100 µM
TGI [44]: > 100 µM
TGI [45]: > 100 µM
TGI [46]: > 100 µM
TGI [47]: > 100 µM
TGI [48]: > 100 µM
TGI [49]: > 100 µM
TGI [50]: > 100 µM
TGI [51]: > 100 µM
TGI [52]: > 100 µM
TGI [53]: > 100 µM
TGI [54]: > 100 µM
GI50 [55]: > 100 µM
TGI [55]: > 100 µM
TGI [56]: > 100 µM
TGI [57]: > 100 µM
TGI [58]: > 100 µM
TGI [59]: > 100 µM

N#Cc1c2c(c(Nc3ccc(F)cc3)n3c1nc1ccccc13)CCCC2
TGI [1]: > 100 µM
TGI [2]: > 100 µM
TGI [3]: > 100 µM
TGI [4]: > 100 µM
TGI [5]: > 100 µM
TGI [6]: > 100 µM
TGI [7]: > 100 µM
TGI [8]: > 100 µM
TGI [9]: > 100 µM
TGI [10]: > 100 µM
TGI [11]: > 100 µM
TGI [12]: > 100 µM
TGI [13]: > 100 µM
TGI [14]: > 100 µM
TGI [15]: > 100 µM
TGI [16]: > 100 µM
TGI [17]: > 100 µM
TGI [18]: > 100 µM
TGI [19]: > 100 µM
TGI [20]: > 100 µM
TGI [21]: > 100 µM
TGI [22]: > 100 µM
TGI [23]: > 100 µM
TGI [24]: > 100 µM
TGI [25]: > 100 µM
TGI [26]: > 100 µM
TGI [27]: > 100 µM
TGI [28]: > 100 µM
TGI [29]: > 100 µM
TGI [30]: > 100 µM
TGI [31]: > 100 µM
TGI [32]: > 100 µM
TGI [33]: > 100 µM
TGI [34]: > 100 µM
TGI [35]: > 100 µM
TGI [36]: > 100 µM
TGI [37]: > 100 µM
TGI [38]: > 100 µM
TGI [39]: > 100 µM
TGI [40]: > 100 µM
TGI [41]: > 86 µM
TGI [42]: > 100 µM
TGI [43]: > 100 µM
TGI [44]: > 100 µM
TGI [45]: > 100 µM
TGI [46]: > 100 µM
TGI [47]: > 100 µM
TGI [48]: > 100 µM
TGI [49]: > 100 µM
TGI [50]: > 85.2 µM
TGI [51]: > 100 µM
TGI [52]: > 100 µM
TGI [53]: > 100 µM
TGI [54]: > 100 µM
TGI [55]: > 100 µM
TGI [56]: > 100 µM
TGI [57]: > 100 µM
TGI [58]: > 100 µM
TGI [59]: > 100 µM

N#Cc1c(N2CCCC2)ncn(-c2ccccc2)c1=S
TGI [1]: > 100 µM
TGI [2]: > 100 µM
TGI [3]: > 100 µM
TGI [4]: > 100 µM
TGI [5]: > 100 µM
TGI [6]: > 100 µM
TGI [7]: > 100 µM
TGI [8]: > 100 µM
TGI [9]: > 100 µM
TGI [10]: > 100 µM
TGI [11]: > 100 µM
TGI [12]: > 100 µM
TGI [13]: > 100 µM
TGI [14]: > 100 µM
TGI [15]: > 100 µM
TGI [16]: > 100 µM
TGI [17]: > 100 µM
TGI [18]: > 100 µM
TGI [19]: > 100 µM
TGI [20]: > 100 µM
TGI [21]: > 100 µM
TGI [22]: > 100 µM
TGI [23]: > 100 µM
TGI [24]: > 100 µM
TGI [25]: > 100 µM
TGI [26]: > 100 µM
TGI [27]: > 100 µM
TGI [28]: > 100 µM
TGI [29]: > 100 µM
TGI [30]: > 100 µM
TGI [31]: > 100 µM
TGI [32]: > 100 µM
TGI [33]: > 100 µM
TGI [34]: > 100 µM
TGI [35]: > 100 µM
TGI [36]: > 100 µM
TGI [37]: > 100 µM
TGI [38]: > 100 µM
TGI [39]: > 100 µM
TGI [40]: > 100 µM
TGI [41]: > 100 µM
TGI [42]: > 100 µM
TGI [43]: > 100 µM
TGI [44]: > 100 µM
TGI [45]: > 100 µM
TGI [46]: > 100 µM
TGI [47]: > 100 µM
TGI [48]: > 100 µM
TGI [49]: > 100 µM
TGI [50]: > 100 µM
TGI [51]: > 100 µM
TGI [52]: > 100 µM
TGI [53]: > 100 µM
TGI [54]: > 100 µM
TGI [55]: > 100 µM
TGI [56]: > 100 µM
TGI [57]: > 100 µM
TGI [58]: 69.3 µM
TGI [59]: > 100 µM

COc1ccc(C(CC(C)=O)c2c(O)c3ccccc3oc2=O)cc1OC (stereo not drawn)
TGI [1]: > 100 µM
TGI [2]: > 100 µM
TGI [3]: > 100 µM
TGI [4]: > 100 µM
TGI [5]: > 100 µM
TGI [6]: > 100 µM
TGI [7]: > 100 µM
TGI [8]: > 100 µM
TGI [9]: > 100 µM
TGI [10]: > 100 µM
TGI [11]: > 100 µM
TGI [12]: > 100 µM
TGI [13]: > 100 µM
TGI [14]: > 100 µM
TGI [15]: > 100 µM
TGI [16]: > 100 µM
TGI [17]: > 100 µM
TGI [18]: > 100 µM
TGI [19]: > 100 µM
TGI [20]: > 100 µM
TGI [21]: > 100 µM
TGI [22]: > 100 µM
TGI [23]: > 100 µM
TGI [24]: > 100 µM
TGI [25]: > 100 µM
TGI [26]: > 100 µM
TGI [27]: > 100 µM
TGI [28]: > 100 µM
TGI [29]: > 100 µM
TGI [30]: > 100 µM
TGI [31]: > 100 µM
TGI [32]: > 100 µM
TGI [33]: > 100 µM
TGI [34]: > 100 µM
TGI [35]: > 100 µM
TGI [36]: > 100 µM
TGI [37]: > 100 µM
TGI [38]: > 100 µM
TGI [39]: > 100 µM
TGI [40]: > 100 µM
TGI [41]: > 100 µM
TGI [42]: > 100 µM
TGI [43]: > 100 µM
TGI [44]: > 100 µM
TGI [45]: > 100 µM
TGI [46]: > 100 µM
TGI [47]: > 100 µM
TGI [48]: > 100 µM
TGI [49]: > 100 µM
TGI [50]: > 100 µM
TGI [51]: > 100 µM
TGI [52]: > 100 µM
TGI [53]: > 100 µM
TGI [54]: > 100 µM
TGI [55]: > 100 µM
TGI [56]: > 100 µM
TGI [57]: > 100 µM
TGI [58]: > 100 µM
TGI [59]: > 100 µM
